Like-named read-outs stand apart in the source and are kept apart here.
Tests used:
[1] = system: Key Grass and Sedge Weeds as well as Grass Crops; assay: Post-Emergent Test II: postemergent herbicidal activity, visual rating after 14 d (Table 8); type: in vivo; conditions: post-emergence, 336 h; for pest or weed control at 35 g/ha: 35 g ai/ha; for pest or weed control at 70 g/ha: 70 g ai/ha; for pest or weed control at 140 g/ha: 140 g ai/ha
Procedure, shortened: (§1)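 Visual 0-100% injury score (0 no injury, 100 complete kill) at 14 d post-spray, relative to untreated plants. Seedlings at 1st-2nd true leaf stage; track sprayer at 187 L/ha, highest rate plus ½×, ¼×, ⅛×, 1/16× serial dilutions. Subirrigated after treatment.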

[2] = system: Key Broadleaf Weed and Crop Species; assay: Post-Emergent Test II: postemergent herbicidal activity, visual rating after 14 d (Table 7); type: in vivo; conditions: post-emergence, 336 h; for pest or weed control at 35 g/ha: 35 g ai/ha; for pest or weed control at 70 g/ha: 70 g ai/ha; for pest or weed control at 140 g/ha: 140 g ai/ha
Procedure, shortened: as §1

[3] = barnyardgrass (Echinochloa crus-galli), read-out: Visual Growth Reduction (%) 14 Days After Application, ECHCG
[4] = giant foxtail (Setaria faberi), read-out: Visual Growth Reduction (%) 14 Days After Application, SETFA
[5] = maize, corn (Zea mays), read-out: Visual Growth Reduction (%) 14 Days After Application, ZEAMX
[6] = rice (Oryza sativa), read-out: Visual Growth Reduction (%) 14 Days After Application, ORYSA
[7] = wheat, spring (Triticum aestivum), read-out: Visual Growth Reduction (%) 14 Days After Application, TRZAS
[8] = yellow nutsedge (Cyperus esculentus), read-out: Visual Growth Reduction (%) 14 Days After Application, CYPES
[9] = ABUTH: velvetleaf (Abutilon theophrasti), read-out: Visual Growth Reduction (%) 14 Days After Application ABUTH
[10] = AMARE: redroot pigweed (Amaranthus retroflexus), read-out: Visual Growth Reduction (%) 14 Days After Application AMARE
[11] = BRSNN: oilseed rape, canola (Brassica napus), read-out: Visual Growth Reduction (%) 14 Days After Application BRSNN
[12] = CHEAL: lambsquarters (Chenopodium album), read-out: Visual Growth Reduction (%) 14 Days After Application CHEAL
[13] = EPHHL: wild poinsettia (Euphorbia heterophylla), read-out: Visual Growth Reduction (%) 14 Days After Application EPHHL
[14] = HELAN: sunflower (Helianthus annuus), read-out: Visual Growth Reduction (%) 14 Days After Application HELAN

Structure (SMILES) | pest or weed control at 35 g/ha [1, 3] [%] | pest or weed control at 70 g/ha [1, 3] [%] | pest or weed control at 140 g/ha [1, 3] [%] | pest or weed control at 35 g/ha [1, 4] [%] | pest or weed control at 70 g/ha [1, 4] [%] | pest or weed control at 140 g/ha [1, 4] [%] | pest or weed control at 35 g/ha [1, 6] [%] | pest or weed control at 70 g/ha [1, 6] [%] | pest or weed control at 140 g/ha [1, 6] [%] | pest or weed control at 35 g/ha [1, 7] [%] | pest or weed control at 70 g/ha [1, 7] [%] | pest or weed control at 140 g/ha [1, 7] [%] | pest or weed control at 35 g/ha [1, 8] [%] | pest or weed control at 70 g/ha [1, 8] [%] | pest or weed control at 140 g/ha [1, 8] [%] | pest or weed control at 35 g/ha [2, 9] [%] | pest or weed control at 70 g/ha [2, 9] [%] | pest or weed control at 140 g/ha [2, 9] [%] | pest or weed control at 35 g/ha [2, 10] [%] | pest or weed control at 70 g/ha [2, 10] [%] | further results
COC(=O)c1nc(-c2ccc(F)c3c2OCO3)c(F)c(N)c1Cl [Compound 83] | 0 to 29 | 0 to 29 | 0 to 29 | 0 to 29 | 0 to 29 | 0 to 29 | 0 to 29 | 0 to 29 | 0 to 29 | 0 to 29 | 0 to 29 | 0 to 29 | 0 to 29 | 0 to 29 | 0 to 29 | 85 to 94 | 85 to 94 | 95 to 100 | 95 to 100 | 95 to 100 | pest or weed control at 35 g/ha [1, 5]: 0 to 29%; pest or weed control at 70 g/ha [1, 5]: 0 to 29%; pest or weed control at 140 g/ha [1, 5]: 0 to 29%; pest or weed control at 140 g/ha [2, 10]: 95 to 100%; pest or weed control at 35 g/ha [2, 11]: 30 to 44%; pest or weed control at 70 g/ha [2, 11]: 95 to 100%; pest or weed control at 140 g/ha [2, 11]: 95 to 100%; pest or weed control at 35 g/ha [2, 12]: 95 to 100%; pest or weed control at 70 g/ha [2, 12]: 95 to 100%; pest or weed control at 140 g/ha [2, 12]: 95 to 100%; pest or weed control at 35 g/ha [2, 13]: 0 to 29%; pest or weed control at 70 g/ha [2, 13]: 0 to 29%; pest or weed control at 140 g/ha [2, 13]: 0 to 29%; pest or weed control at 35 g/ha [2, 14]: 85 to 94%; pest or weed control at 70 g/ha [2, 14]: 95 to 100%; pest or weed control at 140 g/ha [2, 14]: 95 to 100%
COC(=O)c1nc(-c2cccc3c2OC(F)(F)O3)cc(N)c1Cl [Compound 84] | 0 to 29 | 0 to 29 | 0 to 29 | 0 to 29 | 0 to 29 | 0 to 29 | 0 to 29 | 0 to 29 | 0 to 29 | 0 to 29 | 0 to 29 | 0 to 29 | 0 to 29 | 0 to 29 | 0 to 29 | 45 to 59 | 60 to 74 | 75 to 84 | 95 to 100 | 95 to 100 | pest or weed control at 140 g/ha [2, 10]: 95 to 100%; pest or weed control at 35 g/ha [2, 11]: 60 to 74%; pest or weed control at 70 g/ha [2, 11]: 75 to 84%; pest or weed control at 140 g/ha [2, 11]: 85 to 94%; pest or weed control at 35 g/ha [2, 12]: 85 to 94%; pest or weed control at 70 g/ha [2, 12]: 85 to 94%; pest or weed control at 140 g/ha [2, 12]: 95 to 100%; pest or weed control at 35 g/ha [2, 13]: 0 to 29%; pest or weed control at 70 g/ha [2, 13]: 0 to 29%; pest or weed control at 140 g/ha [2, 13]: 0 to 29%; pest or weed control at 35 g/ha [2, 14]: 0 to 29%; pest or weed control at 70 g/ha [2, 14]: 30 to 44%; pest or weed control at 140 g/ha [2, 14]: 30 to 44%
COC(=O)c1nc(-c2ccc(Cl)c3c2OC(F)(F)O3)cc(N)c1Cl [Compound 86] | 0 to 29 | 0 to 29 | 0 to 29 | 0 to 29 | 0 to 29 | 0 to 29 | 0 to 29 | 0 to 29 | 0 to 29 | 0 to 29 | 0 to 29 | 0 to 29 | 60 to 74 | 60 to 74 | 60 to 74 | 75 to 84 | 85 to 94 | 85 to 94 | 95 to 100 | 95 to 100 | pest or weed control at 35 g/ha [1, 5]: 85 to 94%; pest or weed control at 70 g/ha [1, 5]: 85 to 94%; pest or weed control at 140 g/ha [1, 5]: 95 to 100%; pest or weed control at 140 g/ha [2, 10]: 95 to 100%; pest or weed control at 35 g/ha [2, 11]: 75 to 84%; pest or weed control at 70 g/ha [2, 11]: 75 to 84%; pest or weed control at 140 g/ha [2, 11]: 85 to 94%; pest or weed control at 35 g/ha [2, 12]: 95 to 100%; pest or weed control at 70 g/ha [2, 12]: 95 to 100%; pest or weed control at 140 g/ha [2, 12]: 95 to 100%; pest or weed control at 35 g/ha [2, 13]: 0 to 29%; pest or weed control at 70 g/ha [2, 13]: 0 to 29%; pest or weed control at 140 g/ha [2, 13]: 0 to 29%; pest or weed control at 35 g/ha [2, 14]: 75 to 84%; pest or weed control at 70 g/ha [2, 14]: 85 to 94%; pest or weed control at 140 g/ha [2, 14]: 85 to 94%
Nc1cc(-c2ccc(Cl)c3c2OC(F)(F)O3)nc(C(=O)O)c1Cl [Compound 87] | 0 to 29 | 0 to 29 | 0 to 29 | 0 to 29 | 0 to 29 | 0 to 29 | 0 to 29 | 0 to 29 | 0 to 29 | 0 to 29 | 0 to 29 | 0 to 29 | 0 to 29 | 0 to 29 | 0 to 29 | 75 to 84 | 85 to 94 | 85 to 94 | 95 to 100 | 95 to 100 | pest or weed control at 35 g/ha [1, 5]: 0 to 29%; pest or weed control at 70 g/ha [1, 5]: 0 to 29%; pest or weed control at 140 g/ha [1, 5]: 0 to 29%; pest or weed control at 140 g/ha [2, 10]: 95 to 100%; pest or weed control at 35 g/ha [2, 11]: 60 to 74%; pest or weed control at 70 g/ha [2, 11]: 75 to 84%; pest or weed control at 140 g/ha [2, 11]: 85 to 94%; pest or weed control at 35 g/ha [2, 12]: 95 to 100%; pest or weed control at 70 g/ha [2, 12]: 95 to 100%; pest or weed control at 140 g/ha [2, 12]: 95 to 100%; pest or weed control at 35 g/ha [2, 13]: 0 to 29%; pest or weed control at 70 g/ha [2, 13]: 0 to 29%; pest or weed control at 140 g/ha [2, 13]: 0 to 29%; pest or weed control at 35 g/ha [2, 14]: 75 to 84%; pest or weed control at 70 g/ha [2, 14]: 75 to 84%; pest or weed control at 140 g/ha [2, 14]: 75 to 84%
